According to patent US20240254087A1, “SELECTIVE, PARTIAL, AND ARRESTIN-BIASED 5-HT2A AGONISTS WITH UTILITY IN VARIOUS DISORDERS” (Saint Joseph's University, priority 2021, published 2024):
Where two headings read alike, the source gives them in different places.

Legend:
male C57BL/6J mice [1] = experiment: Head-twitch response (HTR) in mice; assay type: in vivo, mouse; details: for ED50: Mus musculus
Outline: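 Head twitches in male C57BL/6J mice (6-8 weeks) carrying head-mounted magnets were detected with a magnetometer coil around a 12-cm glass cylinder during the dark phase. Coil signal was low-pass filtered at 2 kHz and digitized at 20 kHz. Counts were analyzed by one-way ANOVA with Dunnett's post hoc test.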

5-HT2A [2] = target: T1, 5-HT2A (Homo sapiens, UniProt P28223); experiment: NanoLuc internalization assay; assay type: cell-based; details: 60 min
male C57BL/6J mice [3] = experiment: Tolerance: DOI-induced HTR after 5 days repeated treatment; assay type: in vivo, mouse; details: 5 days SC: 25N-N1-Nap 20, DOI 10, pimavanserin 1 mg/kg/day
Method: The mice were allowed to recover from the magnet implantation surgeries for at least 1 week prior to behavioral testing. HTR experiments were conducted in a well-lit room, and the mice were allowed to habituate to the room for at least 1 h prior to testing. Head twitches was assessed in a 12-cm diameter glass cylinder surrounded by a magnetometer coil. Coil voltage was low-pass filtered (2 kHz), amplified, and digitized (20-kHz sampling rate) using a Powerlab/8SP with LabChart v 7.3.2 (ADInstruments, Colorado Springs, CO, USA). […] HTR counts were analyzed using one-way ANOVAs. Dunnett's test was used for post hoc comparisons.

5-HT2A [4] = target: T1, 5-HT2A; details: cited from earlier work
5-HT2A [5] = target: T1, 5-HT2A; experiment: cell-based; parameters: expressed in transfected cells; host or cells: HEK293T, transient; details: BRET, mean ± SEM; hydrochloride
5-HT2A [6] = target: T1, 5-HT2A; experiment: cell-based; parameters: expressed in transfected cells; host or cells: HEK293T, transient; details: read-out: 5-HT2A β-arrestin Emax (% 5-HT), BRET, mean ± SEM
5-HT2B = 5-HT2B (Homo sapiens, UniProt P41595); experiment: BRET Gq dissociation, 5-HT2B; assay type: cell-based; parameters: expressed in transfected cells; host or cells: HEK293T, transient
5-HT2C = target: T2, 5-HT2C (Homo sapiens, UniProt P28335); experiment: BRET Gq dissociation, 5-HT2C; assay type: cell-based; parameters: expressed in transfected cells; host or cells: HEK293T, transient
T2 sequence (P28335 33-458): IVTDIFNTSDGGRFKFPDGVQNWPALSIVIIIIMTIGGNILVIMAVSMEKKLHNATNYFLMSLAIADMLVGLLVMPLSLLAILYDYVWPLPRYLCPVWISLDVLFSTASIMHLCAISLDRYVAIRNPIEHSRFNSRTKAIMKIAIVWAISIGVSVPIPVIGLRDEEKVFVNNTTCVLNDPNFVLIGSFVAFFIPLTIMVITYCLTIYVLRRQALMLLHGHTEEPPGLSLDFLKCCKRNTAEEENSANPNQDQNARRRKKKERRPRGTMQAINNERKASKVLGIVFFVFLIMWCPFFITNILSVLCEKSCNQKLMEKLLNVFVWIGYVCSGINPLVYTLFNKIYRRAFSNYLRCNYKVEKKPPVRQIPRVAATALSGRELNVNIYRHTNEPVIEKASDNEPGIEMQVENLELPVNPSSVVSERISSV

T1 sequence (P28223 whole entry): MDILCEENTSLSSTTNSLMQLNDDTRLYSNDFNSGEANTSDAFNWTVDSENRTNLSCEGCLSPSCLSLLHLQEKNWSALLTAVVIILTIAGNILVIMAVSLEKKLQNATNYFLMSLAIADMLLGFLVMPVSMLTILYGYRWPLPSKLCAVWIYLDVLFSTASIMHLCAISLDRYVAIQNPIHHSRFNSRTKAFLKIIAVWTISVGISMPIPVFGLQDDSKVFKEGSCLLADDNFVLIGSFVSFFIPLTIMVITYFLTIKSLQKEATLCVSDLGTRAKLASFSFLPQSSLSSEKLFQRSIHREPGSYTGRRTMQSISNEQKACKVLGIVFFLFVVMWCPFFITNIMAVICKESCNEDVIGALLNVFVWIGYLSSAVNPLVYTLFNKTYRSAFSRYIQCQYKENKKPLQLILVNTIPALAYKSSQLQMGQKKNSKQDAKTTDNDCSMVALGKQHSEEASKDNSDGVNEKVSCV
Sequence of 5-HT2B (P41595 whole entry): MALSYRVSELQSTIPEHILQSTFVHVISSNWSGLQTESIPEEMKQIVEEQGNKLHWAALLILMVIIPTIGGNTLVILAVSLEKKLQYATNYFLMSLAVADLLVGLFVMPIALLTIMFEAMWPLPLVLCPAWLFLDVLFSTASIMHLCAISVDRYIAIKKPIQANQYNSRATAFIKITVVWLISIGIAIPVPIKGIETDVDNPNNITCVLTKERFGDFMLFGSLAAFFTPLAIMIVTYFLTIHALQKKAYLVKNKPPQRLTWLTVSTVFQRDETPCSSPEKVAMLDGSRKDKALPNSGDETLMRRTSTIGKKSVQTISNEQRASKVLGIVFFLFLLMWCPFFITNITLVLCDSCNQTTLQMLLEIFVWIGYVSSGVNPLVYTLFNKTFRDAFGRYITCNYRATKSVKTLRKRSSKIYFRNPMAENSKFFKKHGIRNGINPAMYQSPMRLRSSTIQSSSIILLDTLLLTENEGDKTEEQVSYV

## COc1cc(CC(C)N)c(OC)cc1I.Cl (racemic) [(±)-DOI, (±)-2,5-dimethoxy-4-iodoamphetamine hydrochloride, reference compound]
Male C57BL/6J mice [1]
  Max HTR response during a 30-min assessment (maximum counts ÷ baseline response): 9.9-fold increase
Male C57BL/6J mice [1]; read-out: HTR ED50 μmol/kg (95% CI), SC, except DOI and 25D-NBOMe IP
  ED50: 0.8 µmol/kg
Male C57BL/6J mice [1]; read-out: HTR ED50 mg/kg (95% CI), SC, except DOI and 25D-NBOMe IP
  ED50: 0.29 mg/kg
5-HT2A [2]
  Internalization of 5-HT2A receptors: strong internalization
Male C57BL/6J mice [3]
  Ability of DOI (1 mg/kg IP) to induce the HTR after repeated daily treatment: reduced significantly
5-HT2A [4]
  Emax in a 5-HT2A-Gq calcium flux assay: 81.3%
5-HT2A [5]
  5-HT2A Gq Emax (% 5-HT): 108.2 ± 4.2 % 5-HT
5-HT2A [6]
  Emax: 88.8 ± 1.9%
5-HT2B
  EC50: 12.6 nM
5-HT2B; read-out: 5-HT2B Gq Dissociation (BRET) EMAX ± SEM (%5-HT)
  Emax: 103 ± 2.8%
5-HT2C
  EC50: 0.832 nM
5-HT2C; read-out: 5-HT2C Gq Dissociation (BRET) EMAX ± SEM (%5-HT)
  Emax: 114 ± 3.4%
